The assay deals with human HEp2 cells. To be noted: read-out: Dark toxicity (IC50), overnight incubation, Cell Titer Blue, from dose-response curves. Background: The colour change of resazurin is a common sign of viable cells or microbes.

Broadly, the pIC50 is −log10 of the IC50, conventionally taken in molar units.

pIC50: −log10 of the molar value.

Regarding `COc1ccc(C2=C3C=C(Cl)C(c4ccc(OC)cc4)=[N+]3[B-](F)(F)n3c2cc(Cl)c3-c2ccc(NC(=S)NCCOCCOCCOCCC(=O)N[C@@H](CC(C)C)C(=O)N[C@@H](C)C(=O)N[C@@H](CCCNC(=N)N)C(=O)N[C@@H](CC(C)C)C(=O)N[C@@H](CC(C)C)C(=O)N[C@H](C(N)=O)[C@@H](C)O)cc2)cc1` [Conjugate 8, BODIPY-3PEG-LARLLT-NH2], the negative-log IC50 (pIC50) was 4.01.

For the origin of these results see paper PMC5507552 (Bioconjugate chemistry, 2017).
